Assay results: US4056674A, “Derivatives of 3-deazaguanine” (priority 1975, dated 1977)
Values after ≈ are worked out from the molar mass of the structure shown. Values joined by “and” are separate entries in the source; they are usually repeats but may differ in a detail not shown here. Equal values may be shown once.

Assays:
RV/2: rhinovirus, type 1 = assay: In vitro antiviral, inhibition of virus-induced CPE, RV/2; format: cell-based; settings: KB or RK-13 cells, VR >0.5 significant, <0.5 slight antiviral activity
pseudorabies virus = format: cell-based; settings: PRV; KB or RK-13 cells; VR >0.5 significant, <0.5 slight antiviral activity
rhinovirus, type 56 = assay: In vitro antiviral, inhibition of virus-induced CPE, RV/56; format: cell-based; settings: KB or RK-13 cells, VR >0.5 significant, <0.5 slight antiviral activity
[1] = tested on: herpes simplex virus, type 1; assay: In vitro antiviral, inhibition of virus-induced CPE, HSV/1; format: cell-based; settings: KB or RK-13 cells, VR >0.5 significant, <0.5 slight antiviral activity
human cytomegalovirus = assay: In vitro antiviral, inhibition of virus-induced CPE, HCMV; format: cell-based; settings: KB or RK-13 cells, VR >0.5 significant, <0.5 slight antiviral activity
influenza virus, type Ao = assay: In vitro antiviral, inhibition of virus-induced CPE, IV/Ao; format: cell-based; settings: KB or RK-13 cells, VR >0.5 significant, <0.5 slight antiviral activity
vaccinia virus = format: cell-based; settings: VV; KB or RK-13 cells; VR >0.5 significant, <0.5 slight antiviral activity
L1210 cells [2] = assay: Cytotoxicity to L1210 cells in tissue culture; format: cell-based
Method: (§1) In this example compound 30 was tested for antitumor activity in mice. […] A 10^-5 M concentration of compound 30 caused 50% inhibition of the incorporation of ^3 H-thymidine and ^3 H-uridine into the acidinsoluble fraction of L1210 cells in tissue culture. […] Ara C (cytosine arabinoside) was included as a standard.

myxoma virus = assay: In vitro antiviral, inhibition of virus-induced CPE, MV; format: cell-based; settings: KB or RK-13 cells, VR >0.5 significant, <0.5 slight antiviral activity
Method: (§2) In this example, compounds 3, 4, 13, 16, 20, 22, 29 and 30 were tested to determine their in vitro antiviral efficacy, using the inhibition virus-induced cytopathogenic effect (CPE) method of Sidwell, et al. (Applied Microbiology 22:797-801, 1971). Briefly, the CPE procedure includes the suspension of the antiviral agent in a cell culture medium consisting of vitamins, amino acids, serum, buffer, penicillin, streptomycin and indicator dye in water. The virus suspended in the cell culture medium was added to an established monolayer of KB cells or RK-13 cells, and an equal volume of the antiviral agent was then added within 15 minutes. The infected treated cells were graded following microscopic examination. Controls for each experiment include cell controls cells and cell culture medium only), virus controls (cell and virus cell culture medium) and toxicity controls (cells and chemical and cell culture medium).
(§3) The virus rating (VR) system of Sidwell et al., described in Applied Microbiology, supra, was used to evaluate the degree of significance of CPE inhibition.

rhinovirus, type 8 = assay: In vitro antiviral, inhibition of virus-induced CPE, RV/8; format: cell-based; settings: KB or RK-13 cells, VR >0.5 significant, <0.5 slight antiviral activity
leukemia L1210 = assay: Activity against leukemia L1210 in BDF1 female mice; format: in vivo; settings: qd [1-9]
Method: as §1
All animals were inoculated (i.p) with 10^5 leukemic cells. Treatment
was started 24 hours after transplant. Figures in parenthesis denote 21

[3] = tested on: vesicular stomatitis virus; format: cell-based; settings: VSV; KB or RK-13 cells; VR >0.5 significant, <0.5 slight antiviral activity
[4] = tested on: Parainfluenza virus, type 3; assay: In vitro antiviral, inhibition of virus-induced CPE, PIV/3; format: cell-based; settings: PIV/3; KB or RK-13 cells; VR >0.5 significant, <0.5 slight antiviral activity
adenovirus, type 3 = assay: In vitro antiviral, inhibition of virus-induced cytopathogenic effect (CPE), AV/3; format: cell-based; settings: KB or RK-13 cells, VR >0.5 significant, <0.5 slight antiviral activity
adenocarcinoma 755 = assay: Inhibition of growth of subcutaneous implants of adenocarcinoma 755 in C57 Blk/6 female mice; format: in vivo; settings: 40 mg/kg i.p. (qd, 1-7)
L1210 cells [5] = assay: Inhibition of incorporation of 3H-thymidine into the acid-insoluble fraction of L1210 cells; format: cell-based; settings: Mus musculus; 10^-5 M; L1210 cells in tissue culture
Method: as §1

rhinovirus, type 30 = assay: In vitro antiviral, inhibition of virus-induced CPE, RV/30; format: cell-based; settings: KB or RK-13 cells, VR >0.5 significant, <0.5 slight antiviral activity
Method: as §2, §3

rhinovirus, type 13 = assay: In vitro antiviral, inhibition of virus-induced CPE, RV/13; format: cell-based; settings: KB or RK-13 cells, VR >0.5 significant, <0.5 slight antiviral activity
LD10 = assay: LD10; design: species or system mice; settings: mouse, in vivo
Escherichis = assay: In vitro antibacterial, broth dilution assay, Escherichia; format: cell-based; settings: 24 h, read-out: Average MIC
Method: (§4) In this example compounds 7 and 30 were tested to determine their in vitro antibacterial activity. Clinical isolates of pathogens were used for this example. In vitro sensitivity of these organisms were quantitatively determined by broth dilution assay. Serial dilutions were prepared in chemically defined medium in a range from 100 to 0.01 μg/ml. The minimal Inhibitory Concentration (MIC) was recorded as the highest dilution of compound which prevented visible growth of the pathogen following 24 hr incubation at 35°.

[6] = tested on: parainfluenza virus, type 1; assay: In vitro antiviral, inhibition of virus-induced CPE, PIV/1; format: cell-based; settings: PIV/1; KB or RK-13 cells; VR >0.5 significant, <0.5 slight antiviral activity
murine cytomegalovirus = assay: In vitro antiviral, inhibition of virus-induced CPE, MCMV; format: cell-based; settings: KB or RK-13 cells, VR >0.5 significant, <0.5 slight antiviral activity
Method: as §2, §3

Hela cells = assay: Cytotoxicity to Hela cells in tissue culture; format: cell-based
rhinovirus, type 1A = assay: In vitro antiviral, inhibition of virus-induced CPE, RV/1A; format: cell-based; settings: KB or RK-13 cells, VR >0.5 significant, <0.5 slight antiviral activity
L1210 cells [7] = assay: Inhibition of incorporation of 3H-uridine into the acid-insoluble fraction of L1210 cells; format: cell-based; settings: Mus musculus; 10^-5 M; L1210 cells in tissue culture
Method: as §1

Proteus = assay: In vitro antibacterial, broth dilution assay, Proteus; format: cell-based; settings: 24 h, read-out: Average MIC
Method: as §4

SMILES: Nc1cc2nc[nH]c2c(=O)[nH]1 [Compound 30, 6-Amino-imidazo[4,5c]pyridin-4(5H)one]
- Virus rating (VR) (RV/2: rhinovirus, type 1): 1.3
- Virus rating (VR) (pseudorabies virus): 0.3
- Virus rating (VR) (rhinovirus, type 56): 1.1
- Virus rating (VR) [1]: 1.3
- Virus rating (VR) (human cytomegalovirus): 0.3
- Virus rating (VR) (influenza virus, type Ao): 0.5
- Virus rating (VR) (vaccinia virus): 1.2
- cytotoxic to L1210 cells (L1210 cells [2]): cytotoxic
- Virus rating (VR) (myxoma virus): 0.9
- Virus rating (VR) (rhinovirus, type 8): 1.3
- 21 day survivors (leukemia L1210; 20 mg/kg i.p.): 0/6
- Average Mean Survival (leukemia L1210; 20 mg/kg i.p.): 10.83 days
- T/C (leukemia L1210; 20 mg/kg i.p.): 1.32
- increased the life span (leukemia L1210; 20 mg/kg i.p.): 32%
- ΔWt. (leukemia L1210; 20 mg/kg i.p.): +2.0 g
- 21 day survivors (leukemia L1210; 40 mg/kg i.p.): 1/6
- Average Mean Survival (leukemia L1210; 40 mg/kg i.p.): 12.00 days
- T/C (leukemia L1210; 40 mg/kg i.p.): 1.43
- increased the life span (leukemia L1210; 40 mg/kg i.p.): 43%
- ΔWt. (leukemia L1210; 40 mg/kg i.p.): +0.4 g
- 21 day survivors (leukemia L1210; 80 mg/kg i.p.): 0/6
- Average Mean Survival (leukemia L1210; 80 mg/kg i.p.): 13.33 days
- T/C (leukemia L1210; 80 mg/kg i.p.): 1.63
- increased the life span (leukemia L1210; 80 mg/kg i.p.): 63%
- ΔWt. (leukemia L1210; 80 mg/kg i.p.): +1.7 g
- Virus rating (VR) [3]: 1.3
- Virus rating (VR) [4]: 1.0
- Virus rating (VR) (adenovirus, type 3): 1.1
- inhibition of the growth of subcutaneous implants (adenocarcinoma 755): 75% and 93%
- inhibition at 10 µM (L1210 cells [5]): 50%
- Virus rating (VR) (rhinovirus, type 30): 0.3
- Virus rating (VR) (rhinovirus, type 13): 1.2
- LD10 (LD10): 500 mg/kg
- MIC (Escherichis): 6 µg/mL (≈ 40 µM)
- Virus rating (VR) [6]: 1.0
- Virus rating (VR) (murine cytomegalovirus): 0.6
- cytotoxic to Hela cells (Hela cells): cytotoxic
- Virus rating (VR) (rhinovirus, type 1A): 0.3
- inhibition at 10 µM (L1210 cells [7]): 50%
- MIC (Proteus): 25 µg/mL (≈ 167 µM)
